Measured values as given in paper PMC8157534 (ACS Nano, 2021).

Target: TmrAB (Thermus thermophilus, UniProt Q72J04+Q72J05)
Conditions: 2 mM Mg-ATP, 2 mM MgCl2, pH 7.5, 0.2% DDM, 40 °C, 8 min

Chain of TmrAB (Q72J05 1-600): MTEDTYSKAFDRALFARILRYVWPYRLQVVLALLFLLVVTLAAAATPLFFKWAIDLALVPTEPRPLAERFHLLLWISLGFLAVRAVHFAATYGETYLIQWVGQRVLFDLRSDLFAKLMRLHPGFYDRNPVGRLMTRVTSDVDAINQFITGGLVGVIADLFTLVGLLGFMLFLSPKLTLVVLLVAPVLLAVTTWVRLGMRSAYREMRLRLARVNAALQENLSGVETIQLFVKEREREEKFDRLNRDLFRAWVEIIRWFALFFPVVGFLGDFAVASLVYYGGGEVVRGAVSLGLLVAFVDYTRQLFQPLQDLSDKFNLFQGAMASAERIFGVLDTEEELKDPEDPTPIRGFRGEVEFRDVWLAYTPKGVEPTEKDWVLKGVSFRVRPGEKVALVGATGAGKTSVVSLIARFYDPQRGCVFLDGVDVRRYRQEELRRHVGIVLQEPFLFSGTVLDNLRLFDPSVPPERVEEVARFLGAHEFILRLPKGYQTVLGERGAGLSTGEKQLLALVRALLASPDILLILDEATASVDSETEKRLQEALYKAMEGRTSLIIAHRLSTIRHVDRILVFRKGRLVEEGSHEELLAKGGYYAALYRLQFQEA
Chain of TmrAB (Q72J04 1-578): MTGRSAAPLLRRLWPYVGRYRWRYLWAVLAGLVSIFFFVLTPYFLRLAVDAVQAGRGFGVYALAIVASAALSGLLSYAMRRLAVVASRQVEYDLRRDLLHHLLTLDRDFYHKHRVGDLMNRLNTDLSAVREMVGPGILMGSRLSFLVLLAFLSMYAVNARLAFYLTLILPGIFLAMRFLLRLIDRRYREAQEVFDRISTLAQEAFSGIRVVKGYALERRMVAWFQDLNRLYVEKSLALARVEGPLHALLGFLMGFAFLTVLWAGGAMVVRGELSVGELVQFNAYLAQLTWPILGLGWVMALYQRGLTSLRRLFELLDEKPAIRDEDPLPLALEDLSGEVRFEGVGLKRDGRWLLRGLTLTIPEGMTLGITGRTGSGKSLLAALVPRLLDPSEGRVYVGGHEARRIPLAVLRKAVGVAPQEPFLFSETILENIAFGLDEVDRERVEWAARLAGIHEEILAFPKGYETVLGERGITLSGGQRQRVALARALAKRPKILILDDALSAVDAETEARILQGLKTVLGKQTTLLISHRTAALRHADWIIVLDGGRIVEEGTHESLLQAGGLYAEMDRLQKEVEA

## Nc1ncnc2c1ncn2[C@@H]1O[C@H](COP(=O)(O)OP(=O)(O)OP(=O)(O)O)[C@@H](O)[C@H]1O [ATP]
  ATPase activity: A high ATPase activity above background demonstrated TmrAB function (Figure 1c)
